Source: US5962451A, “Benzodiazepin derivatives useful as CCK-receptor antagonists” (Ferring BV, priority 1992, dated 1999)

How the values were obtained:
CCK-B receptor = target: T1, CCK-B receptor (Rattus norvegicus, UniProt P30553); assay: Measurement of Binding Affinity for CCK-B Receptors ([125I]BH-CCK-8 displacement, rat brain membranes); conditions: SD rat brain membranes, [125I]BH-CCK-8, 25° C., 120 min, pH 6.5
T1 construct: the whole brain was immediately excised from each of the rats and homogenized; from tissue; host or cells: SD rat whole brain, membrane preparation
T1 sequence (P30553 whole entry): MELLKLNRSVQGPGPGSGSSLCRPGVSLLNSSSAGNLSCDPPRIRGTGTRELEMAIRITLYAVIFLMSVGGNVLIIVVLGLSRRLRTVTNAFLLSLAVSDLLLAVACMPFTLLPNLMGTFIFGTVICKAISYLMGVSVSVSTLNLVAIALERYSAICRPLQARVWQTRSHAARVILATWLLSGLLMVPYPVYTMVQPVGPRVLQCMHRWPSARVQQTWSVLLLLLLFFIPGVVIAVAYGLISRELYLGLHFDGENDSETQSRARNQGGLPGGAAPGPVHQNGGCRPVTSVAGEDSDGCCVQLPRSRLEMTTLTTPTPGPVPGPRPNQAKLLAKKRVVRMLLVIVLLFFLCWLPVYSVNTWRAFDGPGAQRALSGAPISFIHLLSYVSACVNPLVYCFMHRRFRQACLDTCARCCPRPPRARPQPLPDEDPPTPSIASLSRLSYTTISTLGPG
Description: Measurement of Binding Affinity for CCK-B Receptors
About 100 SD rats were decapitated without anaesthesia, the whole brain was immediately excised from each of the rats and homogenized in 10-fold volume of 0.32 M aqueous solution of sucrose by the use of a Teflon-coatedhomogenizer, the homogenate thus obtained was centrifuged for ten minutes at 900 g by the use of a cooled centrifuge, and the supernatant was further centrifuged for 15 minutes at 11500 g. The precipitate thus obtained was dispersed in 50 mM Tris-HCl buffer (pH 7.4) containing 0.08% Triton X-100, this suspension was allowed to stand for 30 minutes and again centrifuged for 15 minutes at 11500 g, the precipitate thus obtained was washed twice with 5 mM Tris-HCl buffer and twice with 50 mM Tris-HCl buffer in that order with centrifugal separation, the washed precipitate was suspended in 50 mM Tris-HCl buffer, and the suspension thus obtained was stored at -80° C. until the membrane preparation was required.
The membrane preparations were warmed to room temperature, diluted with 10 mM HEPES buffer (containing 130 mM NaCl, 5 mM MgCl2, 1 mM EGTA and 0.25 mg/ml bacitracin; pH 6.5) and incubated at 25° C. for 120 minutes in the presence of [^125 I]BH-CCK-8 and the test compound, then separated by suction filtration. Non-specific binding was determined in the presence of 1 μM CCK-8. The amount of labelled ligand bound to the receptor was measured by the use of a γ-counter; IC50 values were determined, being that concentration of test compound required to inhibit specific binding by 50%.
(§1) A high affinity for the CCK-A receptor in a gastrin/CCK-B antagonist is thought to be undesirable as it may lead to side-effects such as cholestasis and gall stone formation during therapy. Therefore it is preferable for the therapeutic agent to be selective for the CCK-B receptor. This selectivity is expressed by the ratio IC50. (CCK-A)/IC50 (CCK-B); the higher the value of this ratio the better is the selectivity.
The table below summarises CCK-B and CCK-A binding data for examples of preferred compounds, as well as the A/B ratio. Many compounds display a marked increase in CCK-B receptor binding affinity when compared to the compound of Example 281 of U.S. Pat. No. 4,820,834 (also known as L-365,260). Several compounds also show much greater selectivity for the CCK-B receptor over the CCK-A receptor than that reported for the compound of Example 281 of U.S. Pat. No.

CCK-A receptor = target: T2, CCK-A receptor (Rattus norvegicus, UniProt P30551); assay: Measurement of Binding Affinity for CCK-A Receptors ([3H]L-364,718 displacement, rat pancreas membranes); conditions: SD rat pancreas membranes, [3H]L-364,718, 37° C., 30 min
T2 construct: The pancreas of an SD rat was homogenized; from tissue; host or cells: SD rat pancreas, membrane preparation
T2 sequence (P30551 1-444): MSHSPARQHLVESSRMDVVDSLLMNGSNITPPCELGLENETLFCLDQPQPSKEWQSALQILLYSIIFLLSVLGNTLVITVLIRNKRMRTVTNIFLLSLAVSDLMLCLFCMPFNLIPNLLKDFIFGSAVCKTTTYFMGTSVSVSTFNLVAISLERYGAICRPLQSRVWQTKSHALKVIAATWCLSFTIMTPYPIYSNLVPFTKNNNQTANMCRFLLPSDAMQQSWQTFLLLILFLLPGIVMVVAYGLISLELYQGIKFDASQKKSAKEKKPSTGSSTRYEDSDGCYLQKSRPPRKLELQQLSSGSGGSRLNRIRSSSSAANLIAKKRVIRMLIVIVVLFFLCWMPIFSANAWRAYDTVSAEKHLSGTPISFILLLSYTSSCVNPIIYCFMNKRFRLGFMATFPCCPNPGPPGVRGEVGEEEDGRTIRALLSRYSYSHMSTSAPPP
Description: Measurement of Binding Affinity for CCK-A Receptors
The pancreas of an SD rat was homogenized in a 20-fold volume of 50 mM Tris-HCl buffer (pH 7.7) by the use of a Polytrone-type homogenizer, the homogenate was twice centrifuged for 10 minutes at 50000 g by the use of an ultra-centrifuge, the precipitate thus obtained was suspended in a 40-fold volume of 50 mM Tris-HCl buffer (containing 0.2% BSA, 5 mM MgCl2, 0.1 mg/ml bacitracin and 5 mM DTT; pH 7.7), and the suspension was stored at -80° C. until the membrane preparations were required.
The membrane preparations were then warmed to room temperature, diluted 1:10 with the buffer and incubated at 37° C. for 30 minutes in the presence of [^3 H]L-364,718 and the test compound then separated by suction filtration. Non-specific binding was determined in the presence of 1 μM L-364,718. The amount of labelled ligand bound to the receptor was measured by the use of a liquid scintillation counter; IC50 values were determined, being that concentration of test compound required to inhibit specific binding by 50%.
as §1, with “(CCK-A)/IC50 (CCK-B); the higher the value of this ratio the better is the selectivity.” left out

[1] = tested on: Pentagastrin-stimulated gastric acid secretion; assay: Measurement of Inhibition of Pentagastrin-stimulated Gastric Acid Secretion in dog (Heidenhain pouch); assay type: in vivo, male beagle dog; conditions: beagle dog, oral, pentagastrin 8 μg/kg/hr, mean for 3-5 animals
Description: Measurement of Inhibition of Pentagastrin-stimulated Gastric Acid Secretion in doc
Assays were performed using male beagle dogs (7-12 kg) two months after surgical preparation of Heidenhain pouches following the conventional procedure. Each dog was used only once per week.
The animals were deprived of food with free access to water for 18 hr prior to the experiment. The gastric juice was collected from the gastric cannula by gravity drainage every 15 min, and acid output was determined by automatic titration with 0.05 N NaOH to pH 7.0 (Comtite-7, Hiranuma, Tokyo, Japan). Drugs were administered orally 3 hr after the start of the pentagastrin (8 μg/kg/hr) infusion. The effect of each drug was calculated as the percentage inhibition of stimulated acid output. […] Each result is a mean for 3-5 animals.

Row | Structure (SMILES) | IC50 (CCK-B receptor) [nM] | maximum inhibition of stimulated acid output ([1]; 3 μmol/kg) [%] | also measured
1 | Cc1cccc(NC(=O)NC2N=C(c3ccccc3)c3ccccc3N(CC(=O)C3CCCC3)C2=O)c1 (racemic) [Example 4, N-((3RS)-1-Cyclopentylcarbonylmethyl-2,3-dihydro-2-oxo-5-phenyl-1H-1,4-benzodiazepin-3-yl)-N'-(3-methylphenyl) urea] | 0.23 |  | 
2 | Cc1cccc(NC(=O)NC2N=C(c3ccccn3)c3ccccc3N(CC(=O)C3CCCC3)C2=O)c1 (racemic) [Example 14, N-((3RS)-1-Cyclopentylcarbonylmethyl-2,3-dihydro-2-oxo-5-(2-pyridyl)-1H-1,4-benzodiazepin-3-yl)-N'-(3-methylphenyl)urea] | 0.12 |  | IC50 (CCK-A receptor): 2600 nM
3 | Cc1cccc(NC(=O)NC2N=C(c3ccccn3)c3ccccc3N(CC(=O)C(C)(C)C)C2=O)c1 (racemic) [Example 27, N-((3RS)-1-tert-Butylcarbonylmethyl-2,3-dihydro-2-oxo-5-(2-pyridyl)-1H-1,4-benzodiazepin-3-yl)-N'-(3-methylphenyl) urea] |  | 66 | 
4 | Cc1cccc(NC(=O)NC2N=C(c3ccccc3)c3ccccc3N(CC(=O)CC3CCCCC3)C2=O)c1 (racemic) [Example 32, N-((3RS)-1-Cyclohexylmethylcarbonylmethyl-2,3-dihydro-2-oxo-5-phenyl-1H-1,4-benzodiazepin-3-yl)-N'-(3-methylphenyl) urea] | 0.28 |  | 
5 | Cc1cccc(NC(=O)NC2N=C(c3ccccc3)c3ccccc3N(CC(=O)C3(C)CCCCC3)C2=O)c1 (racemic) [Example 34, N-((3RS)-1-((1-Methylcyclohexyl)carbonylmethyl)-2,3-dihydro-2-oxo-5-phenyl-1H-1,4-benzodiazepin-3-yl)-N'-(3-methylphenyl) urea] | 0.38 |  | 
6 | CN(C)c1cccc(NC(=O)NC2N=C(c3ccccn3)c3ccccc3N(CC(=O)C(C)(C)C)C2=O)c1 (racemic) [Example 38, N-((3RS)-1-tert-Butylcarbonylmethyl-2,3-dihydro-2-oxo-5-(2-pyridyl)-1H-1,4-benzodiazepin-3-yl)-N'-(3-dimethylaminophenyl) urea] |  | 100 | 
7 | Cc1cccc(NC(=O)N[C@@H]2N=C(c3ccccc3)c3ccccc3N(CC(=O)C(C)(C)C)C2=O)c1 [Example 26, N-((3R)-1-tert-Butylcarbonylmethyl-2,3-dihydro-2-oxo-5-phenyl-1H-1,4-benzodiazepin-3-yl)-N'-(3-methylphenyl) urea] |  | 53 | 
8 | CN(C)c1cccc(NC(=O)N[C@@H]2N=C(c3ccccc3)c3ccccc3N(CC(=O)C(C)(C)C)C2=O)c1 [Example 64, N-((3R)-1-tert-Butylcarbonylmethyl-2,3-dihydro-2-oxo-5-phenyl-1H-1,4-benzodiazepin-3-yl)-N'-(3-dimethylaminophenyl) urea] |  | 100 | 
9 | Cc1cccc(NC(=O)N[C@@H]2N=C(c3ccccc3)c3ccccc3N(C)C2=O)c1 [reference compound] |  |  | maximum inhibition of stimulated acid output ([1]; 100 μmol/kg): 0%
